Test results as given in patent US20250082766A1, “TREATMENT OF BRAIN TUMORS BY TARGETING THE CHOLESTEROL PATHWAY IN ASTROCYES” (Ramot at Tel-Aviv University Ltd., priority 2022, published 2025).
“Also recorded” adds a separate entry of the source.

How the values were obtained:
GL261 glioma (GBM) = test: Primary GBM model: GL261 intracranially implanted mice treated with Probucol; format: in vivo, mouse; conditions: for tumor growth (IVIS): Probucol 30 mg/kg daily from day 10 (quarter of HED) vs vehicle, FIG. 16B
Protocol: (FIG. 16A) Illustration of the experimental design for primary and recurrent GBM models. (FIGS. 16B-D) WT mice were intracranially (IC) implanted with GL261 cells. Tumor-bearing mice were treated daily, starting at day 10, with Probucol (30 mg/kg) or vehicle. (FIG. 16B) Tumor growth curve as determined by IVIS, (FIG. 16C) mice weight loss, and (FIG. 16D) Kaplan-Meier curves assess overall survival. p-value by Two-way ANOVA. Data represent Mean±SEM, 8 mice/group. (FIG. 16E) Illustration of the predicted effects of probucol or glyburide in the different models/disease stages.
For intracranial mouse glioma, mice were anesthetized, positioned in a Stereotaxic Alignment System, and injected with 1.5×10^4 GL261 or CT-2A cells in 2 μl of DMEM. Injections were made to the right frontal lobe, approximately 2.5 mm lateral and 0.1 mm caudal from bregma at a depth of 3 mm. In-vivo bioluminescence imaging, following XenoLight D-luciferin Potassium Salt administration (150 mg/kg) i.p. administration, was determined using IVIS Spectrum system (PerkinElmer). Ganciclovir (GCV, Cymevene, Roche #SAP-10051872; 25 mg/kg), Diphtheria-toxin (DT, Sigma-Aldrich, #D0564; 1100 ng/mice), or vehicle control (PBS) were administered daily following tumor establishment (day 10), as previously described (Mayo, L., et al. Nat Med (2014) 20: 1147-1156). CD8^+ T cell depletion was performed using an anti-CD8 monoclonal antibody ([…], Bioxcell) or an isotype control monoclonal antibody (2A3, Bioxcell), as previously described (Takenaka, M. C. et al. Control of tumor-associated macrophages and T cells in glioblastoma via AHR and CD39. Nat Neurosci 22, 729-740 (2019)). GBM-bearing mice were intraperitoneally injected (0.1 mg/mouse) with an anti-CD8 or an isotype control mAbs, 1 day before, and 7 days after, GCV administration. CD8 T-cell depletion was validated by FACS analysis using a Sony SH800 FACS instrument (Sony Biotechnology). Data analysis was performed using FlowJo v10 (TreeStar, USA). The following reagents were used for analysis: anti-CD45 (1:100; 30-F11, Biolegend, #103106), anti-CD3[…] (1:50; 145-2C11, Biolegend #100335), and anti-CD8a (1:100; 53-6.7, Biolegend, #100765).
To investigate this hypothesis, C57Bl/6 mice are implanted with GFP^+ luciferase-expressing glioma cells (GL261 or CT-2A), using two subtype models—primary or recurrent GBM/brain tumor resection (as illustrated in FIG. 16A), and are treated daily with probucol, glyburide, or vehicle control, with or without a potent statin (e.g., simvastatin as shown in FIG. 15A). The dosage of the different drugs is optimized based on FDA guidelines for conversions from human-accepted dosages (Table 5 below).
In the primary GBM model (pGBM)—10 days after tumor implantation, the mice are treated with cholesterol-lowering drugs (FIG. 16A). In the recurrent GBM model (rGBM), 12-14 days after inoculation of the mice with the tumor cells, the visible tumor(s) are surgically removed, based on GFP expression, under a stereoscope. The mice are then allowed to recover for a week and then are treated with cholesterol-lowering drugs (FIG. 16A). Of note, tumor formation or recurrence is monitored by bioluminescence (BLI) signals from the tumor cells on in-vivo imaging system (IVIS) spectrum and quantified with Living Image software. Mice are monitored for tumor growth, peritumoral brain edema formation, and mouse survival until the experimental endpoint (extreme lethargy or body weight reduction of greater than 20%), or are euthanized seven days after treatment with the cholesterol-lowering drugs to assess tumor burden, angiogenesis, BBB stability, and immunomodulatory activity in-situ. Tumor volume is evaluated in-vivo by determining tumor BLI, and by histopathology analysis postmortem. Peritumoral brain edema is evaluated in-vivo using IVISense™ Edema (Superhance™ 680) fluorescent probe. […]

[1] = molecular target: cholesterol transporter ABCA1 (Homo sapiens, UniProt O95477); conditions: cited from earlier work
GL261-Luc2 glioma (GBM) = test: GL261-Luc2 implanted mice treated with probucol, TMZ or both; format: in vivo, mouse; conditions: FIGS. 20A-C
Protocol: WT mice were IC implanted with GL261-Luc2 cells. […] (FIG. 20A) Tumor growth curve as determined by IVIS, (FIG. 20B) mice weight loss, and (FIG. 20C) Kaplan-Meier curves assess overall survival. p-value by Two-way ANOVA. Data represent Mean±SEM, 8 mice/group.
For intracranial mouse glioma, mice were anesthetized, positioned in a Stereotaxic Alignment System, and injected with 1.5×10^4 GL261 or CT-2A cells in 2 μl of DMEM. Injections were made to the right frontal lobe, approximately 2.5 mm lateral and 0.1 mm caudal from bregma at a depth of 3 mm. In-vivo bioluminescence imaging, following XenoLight D-luciferin Potassium Salt administration (150 mg/kg) i.p. administration, was determined using IVIS Spectrum system (PerkinElmer). Ganciclovir (GCV, Cymevene, Roche #SAP-10051872; 25 mg/kg), Diphtheria-toxin (DT, Sigma-Aldrich, #D0564; 1100 ng/mice), or vehicle control (PBS) were administered daily following tumor establishment (day 10), as previously described (Mayo, L., et al. Nat Med (2014) 20: 1147-1156). CD8^+ T cell depletion was performed using an anti-CD8 monoclonal antibody (53.6-7, Bioxcell) or an isotype control monoclonal antibody (2A3, Bioxcell), as previously described (Takenaka, M. C. et al. Control of tumor-associated macrophages and T cells in glioblastoma via AHR and CD39. Nat Neurosci 22, 729-740 (2019)). GBM-bearing mice were intraperitoneally injected (0.1 mg/mouse) with an anti-CD8 or an isotype control mAbs, 1 day before, and 7 days after, GCV administration. CD8 T-cell depletion was validated by FACS analysis using a Sony SH800 FACS instrument (Sony Biotechnology). Data analysis was performed using FlowJo v10 (TreeStar, USA). The following reagents were used for analysis: anti-CD45 (1:100; 30-F11, Biolegend, #103106), anti-CD3□ (1:50; 145-2C11, Biolegend #100335), and anti-CD8a (1:100; 53-6.7, Biolegend, #100765).

[2] = system: GL261 and CT-2A glioma cells; test: Cell viability assay (Annexin V/DAPI FACS) of glioma cells; format: cell-based, mouse; parameters: glioma viability: dose or concentration left out as unconfirmed; conditions: lovastatin, 3 day treatment; CT-2A and GL261; FIGS. 11G-H
Protocol: FIGS. 5A-N illustrate that astrocyte-derived cholesterol supports glioma survival. (FIGS. 5A-D) Real-time changes in the ECAR (FIGS. 5A-B) and oxygen consumption rate (OCR) (FIGS. 5C-D) of GL261 glioma cells, cultured in media supplemented with full serum (FCS, fetal calf serum) or lipoprotein-deprived serum (LPDS, Lipoprotein-deficient serum) for 18 hours and measured using Seahorse. Oligo, oligomycin; FCCP, carbonyl cyanide4-(trifluoromethoxy) phenylhydrazone; R/A, rotenone plus antimycin A; 2-DG, 2-deoxy-d-glucose. Glycolysis, glycolytic capacity and glycolytic reserve were extracted from the ECAR reading, and basal respiration, adenosine triphosphate (ATP) production, Maximal respiration, and spare respiratory capacity were determined based on OCR. Data are representative of two independent experiments (n=6 technical replicates per experiment). (FIG. 5E) Percentage of cell death of GL261 and CT-2A glioma cells, or primary astrocytes, cultured in FCS or LPDS for 5 days; as determined by Annexin-V assay (n=5 independent experiments). […] Representative flow cytometry plots of Annexin-V/DAPI staining from each group are shown in FIG. 5F and quantification analyses of cholesterol rescue are in FIG. 5G (n=5 biologically independent experiments). (FIGS. 5H-K) Representative images and quantification of LDLR expression (Immunoblot, FIGS. 5H-I) and cell death via FACS analysis of Annexin V/DAPI staining (FIGS. 5J-K) in response to endogenous LXR agonists (24-OHC) or Mock (DMSO) treatment in GL261 and CT-2A cells (n=3 biologically independent experiments). […] (FIGS. 5L-M) Representative flow cytometry plots of murine GL261 and CT-2A glioma cells co-cultured for 5 days with primary mouse astrocytes are shown in FIG. 5L and quantification analyses in FIG. 5M (n=4 biologically independent experiments). (FIG. 5N) quantification analyses of human U87EGFRvIII (U87) glioma cells co-cultured with human primary astrocytes for 5 days (n=3 biologically independent experiments). […]

primary astrocytes = test: Cell viability assay (Annexin V/DAPI FACS) of primary astrocytes; format: cell-based, mouse; parameters: dose or concentration left out as unconfirmed; conditions: lovastatin, 3 day treatment; FIGS. 11G-H
Description: FIGS. 11A-K illustrate that astrocyte-derived cholesterol supports glioma survival. (FIG. 11A) Representative immunofluorescence images of cholesterol accumulation (Filipin III, white) in the GBM tumor (tdTomato^+ GL261 cells, red), Tumor margins are indicated in yellow (n=3 biologically independent samples). Scale bars, 400 μm (right), 150 μm (left). (FIGS. 11B-E) Real-time changes in the ECAR (FIGS. 11B-C) and OCR (FIGS. 11D-E) of CT-2A glioma cells, cultured in media supplemented with full serum (FCS) or lipoprotein-deprived serum (LPDS) for 18 hours and measured using Seahorse. […] Glycolysis, glycolytic capacity and glycolytic reserve are extracted from ECAR reading, and basal respiration, ATP production, Maximal respiration, and spare respiratory capacity were determined based on OCR. […] (FIGS. 11I-J) Representative immunoblot and quantification analyses comparing LDLR protein levels in with CT-2A and GL261 cells cluttered for 2 days in FCS or LPDS supplemented media. […] P values were determined by two-sided Student's t-tests (FIGS. 11B-E and 11I-K) or by one-way ANOVA, followed by Fisher's LSD post-hoc analysis (FIGS. 11G-H). *P<0.05, **P<0.01, ***P<0.001.
GL261, CT-2A, or astrocytes were seeded at a density of 1.5×10^5 cells per well in a 6-well plate. […] Microglial cell death was determined by LDH Assay (Sigma-Aldrich, #4744934001) according to the manufacturer's instructions. […]

[3] = summary statement on ABCA1 inhibitors, FIGS. 16A-E

Chain of cholesterol transporter ABCA1 (O95477 whole entry): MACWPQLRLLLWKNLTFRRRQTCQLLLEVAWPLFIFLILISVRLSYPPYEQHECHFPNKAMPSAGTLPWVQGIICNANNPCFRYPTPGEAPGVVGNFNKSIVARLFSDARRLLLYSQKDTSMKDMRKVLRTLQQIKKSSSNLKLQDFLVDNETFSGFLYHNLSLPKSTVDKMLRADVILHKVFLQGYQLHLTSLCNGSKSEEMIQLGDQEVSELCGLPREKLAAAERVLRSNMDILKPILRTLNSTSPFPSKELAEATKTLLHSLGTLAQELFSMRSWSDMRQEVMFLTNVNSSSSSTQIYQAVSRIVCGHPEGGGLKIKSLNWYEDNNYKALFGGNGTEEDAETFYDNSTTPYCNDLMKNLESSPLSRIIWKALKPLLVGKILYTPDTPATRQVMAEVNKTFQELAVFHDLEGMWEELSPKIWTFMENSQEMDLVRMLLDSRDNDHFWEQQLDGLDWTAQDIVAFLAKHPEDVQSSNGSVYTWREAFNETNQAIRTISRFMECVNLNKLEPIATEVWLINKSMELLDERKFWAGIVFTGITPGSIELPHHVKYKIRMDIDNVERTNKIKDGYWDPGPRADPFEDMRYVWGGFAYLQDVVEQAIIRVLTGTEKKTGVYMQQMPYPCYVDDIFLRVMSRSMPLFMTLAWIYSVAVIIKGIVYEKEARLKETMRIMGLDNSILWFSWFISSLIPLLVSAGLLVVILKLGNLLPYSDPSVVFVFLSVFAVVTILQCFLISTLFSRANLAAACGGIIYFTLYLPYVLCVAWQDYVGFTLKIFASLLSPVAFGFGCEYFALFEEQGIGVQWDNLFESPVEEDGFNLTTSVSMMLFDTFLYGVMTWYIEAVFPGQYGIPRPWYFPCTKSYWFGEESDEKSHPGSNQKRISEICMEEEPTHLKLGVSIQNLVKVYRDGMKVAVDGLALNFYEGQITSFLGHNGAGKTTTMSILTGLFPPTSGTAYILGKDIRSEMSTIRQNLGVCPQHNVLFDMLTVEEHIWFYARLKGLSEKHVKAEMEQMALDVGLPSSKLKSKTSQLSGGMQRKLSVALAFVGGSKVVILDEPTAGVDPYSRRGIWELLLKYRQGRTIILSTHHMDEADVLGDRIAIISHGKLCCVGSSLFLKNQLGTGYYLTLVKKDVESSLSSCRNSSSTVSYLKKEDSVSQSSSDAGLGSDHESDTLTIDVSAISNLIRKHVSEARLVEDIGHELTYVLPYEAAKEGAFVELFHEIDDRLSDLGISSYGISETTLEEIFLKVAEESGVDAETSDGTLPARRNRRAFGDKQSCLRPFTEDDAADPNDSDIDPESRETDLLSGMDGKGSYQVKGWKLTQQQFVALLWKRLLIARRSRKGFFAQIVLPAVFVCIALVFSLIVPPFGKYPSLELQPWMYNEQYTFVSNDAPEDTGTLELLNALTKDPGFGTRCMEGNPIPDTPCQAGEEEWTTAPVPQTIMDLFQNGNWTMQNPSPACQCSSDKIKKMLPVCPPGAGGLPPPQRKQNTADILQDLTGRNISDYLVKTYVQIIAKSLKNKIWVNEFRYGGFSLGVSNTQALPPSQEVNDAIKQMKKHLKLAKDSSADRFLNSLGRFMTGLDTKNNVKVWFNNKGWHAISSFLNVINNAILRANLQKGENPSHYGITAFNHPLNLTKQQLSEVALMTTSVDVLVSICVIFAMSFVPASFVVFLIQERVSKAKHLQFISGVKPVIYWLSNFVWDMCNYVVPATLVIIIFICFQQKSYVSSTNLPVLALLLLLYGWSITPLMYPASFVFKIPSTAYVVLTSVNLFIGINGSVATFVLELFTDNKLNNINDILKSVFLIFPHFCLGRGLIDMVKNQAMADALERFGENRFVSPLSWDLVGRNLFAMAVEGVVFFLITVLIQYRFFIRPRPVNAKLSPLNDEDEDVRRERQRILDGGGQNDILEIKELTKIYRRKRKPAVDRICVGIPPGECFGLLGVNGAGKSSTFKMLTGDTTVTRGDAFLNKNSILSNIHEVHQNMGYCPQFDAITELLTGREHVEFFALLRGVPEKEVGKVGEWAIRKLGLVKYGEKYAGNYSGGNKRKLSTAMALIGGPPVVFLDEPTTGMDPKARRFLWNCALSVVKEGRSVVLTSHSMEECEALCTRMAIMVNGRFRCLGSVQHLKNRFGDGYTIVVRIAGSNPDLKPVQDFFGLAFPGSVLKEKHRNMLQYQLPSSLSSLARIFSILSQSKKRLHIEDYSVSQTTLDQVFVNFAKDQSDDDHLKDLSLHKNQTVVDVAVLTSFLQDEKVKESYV

SMILES	tumor growth (IVIS) (GL261 glioma (GBM); GL261-bearing WT mice)	tumor growth (IVIS) (GL261 glioma (GBM); GL261-bearing WT mice, listed as probucol)	weight loss associated with tumor burden (GL261 glioma (GBM); GL261-bearing WT mice, Probucol 30 mg/kg daily from day 10 vs vehicle, FIG. 16C)	survival (Kaplan-Meier) (GL261 glioma (GBM); GL261-bearing WT mice, Probucol 30 mg/kg daily from day 10 vs vehicle, FIG. 16D)	survival of subjects having GBM in-vivo (GL261 glioma (GBM); [3])	tumor size of subjects having GBM in-vivo (GL261 glioma (GBM); [3])	weight loss of subjects having GBM in-vivo (GL261 glioma (GBM); [3])	ABCA1 inhibitor potency [1]	therapeutic effect (potency) of TMZ (GL261-Luc2 glioma (GBM); probucol 30 mg/kg combined with TMZ 2.5 mg/kg, GL261-Luc2 bearing mice)	GBM pathogenicity (GL261-Luc2 glioma (GBM); probucol 30 mg/kg, limited course (two days before, during and two days after TMZ course), from day 10)	glioma viability [2]	cell death of primary astrocytes (primary astrocytes)
CC(C)(Sc1cc(C(C)(C)C)c(O)c(C(C)(C)C)c1)Sc1cc(C(C)(C)C)c(O)c(C(C)(C)C)c1 [Probucol]	attenuates GBM progression	significantly attenuated	significantly attenuated	improved	prolonging survival	decreasing tumor size	preventing weight loss	strong	enhances the potency of TMZ therapeutic; also recorded: dramatically enhanced the therapeutic effect of TMZ	able to halt GBM pathogenicity		
CC[C@H](C)C(=O)O[C@H]1C[C@@H](C)C=C2C=C[C@H](C)[C@H](CC[C@@H]3C[C@@H](O)CC(=O)O3)[C@H]21 [lovastatin, Lovastatin]											did not affect glioma viability	significant cell death of primary astrocytes
